Test results as given in EP4227307A1 (Genzyme Corporation, priority 2022, dated 2023).
Structures can show the parent of a compound that is named as a salt.

biological target: T1, human recombinant 6His-Nterm SHP2 full-length (Thr2-Arg593) (Homo sapiens, UniProt Q06124); test: SHP2 Phosphatase Assay (DiFMUP fluorescence); type: biochemical; conditions: SHP2 0.2 nM pre-incubated with 100 nM bi-phosphorylated activating peptide; compound 1000-0.05 nM, 30 min pre-incubation; DiFMUP 20 µM, 45 min, room temperature; 10-concentration dose-response
T1 construct: 6His-Nterm SHP2 full-length (Thr2-Arg593, R&D system); 6His (N); purchased R&D system
T1 sequence (Q06124 2-593): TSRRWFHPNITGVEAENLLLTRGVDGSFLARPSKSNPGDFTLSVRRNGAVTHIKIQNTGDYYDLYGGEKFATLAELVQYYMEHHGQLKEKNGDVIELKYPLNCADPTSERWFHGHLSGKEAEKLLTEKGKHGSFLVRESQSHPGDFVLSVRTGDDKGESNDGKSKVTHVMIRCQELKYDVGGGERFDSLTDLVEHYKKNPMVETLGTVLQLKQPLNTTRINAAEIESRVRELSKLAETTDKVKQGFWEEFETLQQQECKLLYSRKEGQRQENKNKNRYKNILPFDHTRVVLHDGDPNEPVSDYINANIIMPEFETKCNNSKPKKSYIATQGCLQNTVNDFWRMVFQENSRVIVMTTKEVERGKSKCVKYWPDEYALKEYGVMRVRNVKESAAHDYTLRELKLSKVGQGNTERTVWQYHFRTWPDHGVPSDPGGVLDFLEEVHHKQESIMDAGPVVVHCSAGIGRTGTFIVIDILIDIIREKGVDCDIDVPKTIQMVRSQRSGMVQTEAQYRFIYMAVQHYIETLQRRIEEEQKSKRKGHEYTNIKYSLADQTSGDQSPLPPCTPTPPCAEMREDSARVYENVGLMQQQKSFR
Summary of the method: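 SHP2 (0.2 nM) preactivated ≥10 min with 100 nM bis-phosphorylated peptide, then 30 min with compound (10 concentrations, 1000–0.05 nM) at room temperature, pH 7.2 HEPES buffer with DTT. DiFMUP (20 µM, added solution) reacted 45 min, pervanadate-stopped; fluorescence 350/450 nm. IC50 by 4-parameter logistic fit.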

Row | SMILES | IC50 [µM]
1 | COc1ccc2c(n1)[C@H](N)C1(CCN(c3nc(C)c(-c4cccc(F)c4Cl)n4nccc34)CC1)C2 [Compound 216, (7R)-1'-[7-(2-chloro-3-fluoro-phenyl)-6-methyl-pyrazolo[1,5-a]pyrazin-4-yl]-2-methoxy-spiro[5,7-dihydrocyclopenta[b]pyridine-6,4'-piperidine]-7-amine] | 0.685
2 | Cc1nc(N2CCC3(CC2)Cc2ncccc2[C@H]3N)c2ccnn2c1-c1ccnc(C(C)C)c1Cl [Compound 7, (5S)-1'-[7-(3-chloro-2-isopropyl-4-pyridyl)-6-methyl-pyrazolo[1,5-a]pyrazin-4-yl]spiro[5,7-dihydrocyclopenta[b]pyridine-6,4'-piperidine] -5-amine hydrochloride] | 0.013
3 | COc1ccc2c(n1)CC1(CCN(c3nc(C)c(-c4cccc(F)c4F)n4nccc34)CC1)[C@@H]2N [Compound 221, (5S)-1'-[7-(2,3-difluorophenyl)-6-methyl-pyrazolo[1,5-a]pyrazin-4-yl]-2-methoxy-spiro[5,7-dihydrocyclopenta[b]pyridine-6,4'-piperidine]-5-amine] | 0.021
4 | Cc1nc(N2CCC3(CC2)Cc2ncccc2[C@H]3N)c2ccnn2c1-c1cccc(F)c1Cl [Compound 2, (5S)-1'-(7-(2-chloro-3-fluorophenyl)-6-methylpyrazolo[1,5-a]pyrazin-4-yl)-5,7-dihydrospiro[cyclopenta[b]pyridine-6,4'-piperidin]-5-amine] | 0.006
5 | Cc1cccc(-c2c(C)nc(N3CCC4(CC3)Cc3ncccc3[C@H]4N)c3ccnn23)c1C [Compound 164, (5S)-1'-[7-(2,3-dimethylphenyl)-6-methyl-pyrazolo[1,5-a]pyrazin-4-yl]spiro[5,7-dihydrocyclopenta[b]pyridine-6,4'-piperidine]-5-amine] | 0.007
6 | Cc1nc(N2CCC3(CC2)Cc2ncccc2[C@H]3N)c2ccnn2c1Sc1cccnc1C(F)(F)F [Compound 230, (5S)-1'-(6-methyl-7-((2-(trifluoromethyl)pyridin-3-yl)thio)pyrazolo[1,5-a]pyrazin-4-yl)-5,7-dihydrospiro[cyclopenta[b]pyridine-6,4'-piperidin]-5-amine] | 0.015
7 | Cc1nc(N2CCC3(CC2)Cc2ncccc2[C@H]3N)c2ccnn2c1-c1ccc2c(c1)OCC2 [Compound 162, (5S)-1'-[7-(2,3-dihydrobenzofuran-6-yl)-6-methyl-pyrazolo[1,5-a]pyrazin-4-yl]spiro[5,7-dihydrocyclopenta[b]pyridine-6,4'-piperidine]-5-amine] | 0.004
8 | Cc1nc(N2CCC3(CC2)Cc2ncccc2[C@H]3N)c2ccnn2c1-c1ccc(N)nc1 [Compound 177, (5S)-1'-[7-(6-amino-3-pyridyl)-6-methyl-pyrazolo[1,5-a]pyrazin-4-yl]spiro[5,7-dihydrocyclopenta[b]pyridine-6,4'-piperidine]-5-amine] | 0.027
9 | Cc1nc(N2CCC3(CC2)Cc2ncccc2[C@H]3N)c2ccnn2c1-c1cccc(Cl)c1Cl [Compound 192, (5S)-1'-[7-(2,3-dichlorophenyl)-6-methyl-pyrazolo[1,5-a]pyrazin-4-yl]spiro[5,7-dihydrocyclopenta[b]pyridine-6,4'-piperidine]-5-amine] | 0.002
10 | Cc1nc(N2CCC3(CC2)Cc2ccc(C#N)cc2[C@H]3N)c2ccnn2c1-c1cnn(C)c1C (single isomer, unassigned) [Compound 211] | 0.008
11 | Cc1nc(N2CCC3(CC2)Oc2ccccc2[C@H]3N)c2ccnn2c1-c1ccc(F)c2cc[nH]c12 [Compound 18, (3R)-1'-[7-(4-fluoro-1H-indol-7-yl)-6-methyl-pyrazolo[1,5-a]pyrazin-4-yl] spiro [3H-benzofuran-2,4'-piperidine] -3 - amine] | 0.132
12 | Cc1nc(N2CCC3(CC2)Cc2ncc(C(F)F)cc2[C@H]3N)c2ccnn2c1-c1cnn(C)c1C [Compound 55, (5S)-3-(difluoromethyl)-1'-[7-(1,5-dimethylpyrazol-4-yl)-6-methyl-pyrazolo[1,5-a]pyrazin-4-yl]spiro [5,7-dihydrocyclopenta[b]pyridine-6,4'-piperidine]-5-amine] | 0.03
13 | Cc1nc(N2CCC3(CC2)Cc2ccccc2[C@H]3N)c2ccnn2c1-c1cnoc1C [Compound 150, (1S)-1'-[6-methyl-7-(5-methylisoxazol-4-yl)pyrazolo[1,5-a]pyrazin-4-yl]spiro[indane-2,4'-piperidine]-1-amine] | 0.14
14 | Cc1nccc(-c2c(C)nc(N3CCC4(CC3)Oc3ccccc3[C@H]4N)c3ccnn23)c1Cl [Compound 128, (3R)-1'-[7-(3-chloro-2-methyl-4-pyridyl)-6-methyl-pyrazolo[1,5-a]pyrazin-4-yl]spiro[3H-benzofuran-2,4'-piperidine]-3-amine] | 0.017
15 | Cc1nc(N2CCC3(CC2)Cc2ncccc2[C@H]3N)c2c(CO)cnn2c1-c1ccccc1 [Compound 145, [4-[(5S)-5-aminospiro[5,7-dihydrocyclopenta[b]pyridine-6,4'-piperidine]-1'-yl]-6-methyl-7-phenyl-pyrazolo[1,5-a]pyrazin-3-yl]methanol] | > 1
16 | N[C@@H]1c2cccnc2CC12CCN(c1ncc(-c3cccc(F)c3Cl)n3nccc13)CC2 [Compound 87, (5 S)-1'-[7-(2-chloro-3-fluorophenyl)pyrazolo[1,5-a]pyrazin-4-yl]spiro [5,7-dihydrocyclopenta[b]pyridine-6,4'-piperidine] -5-amine hydrochloride] | 0.022
17 | Cc1nc(N2CCC3(CC2)Cc2ncccc2[C@H]3N)c2ccnn2c1-c1cncc(Cl)c1 [Compound 199, (5S)-1'-[7-(5-chloro-3-pyridyl)-6-methyl-pyrazolo[1,5-a]pyrazin-4-yl]spiro[5,7-dihydrocyclopenta[b]pyridine-6,4'-piperidine]-5-amine] | 0.014
18 | Cc1nn(C)cc1-c1c(C)nc(N2CCC3(CC2)Cc2ncccc2[C@H]3N)c2ccnn12 [Compound 47, (5S)-1'-[7-(1,3-dimethylpyrazol-4-yl)-6-methyl-pyrazolo[1,5-a]pyrazin-4-yl]spiro [5,7-dihydrocyclopenta[b]pyridine-6,4'-piperidine]-5-amine] | 0.154
19 | Cc1nc(N2CCC3(CC2)Cc2ncccc2[C@H]3N)c2ccnn2c1-c1cc(C(=O)N(C)C)ccc1F [Compound 172, 4-fluoro-N,N-dimethyl-3-[6-methyl-4-[(5S)-5-aminospiro[5,7-dihydrocyclopenta[b]pyridine-6,4'-piperidine]-1'-yl]pyrazolo[1,5-a]pyrazin-7-yl]benzamide] | > 1
20 | COc1ccc(-c2c(C)nc(N3CCC4(CC3)Cc3ncccc3[C@H]4N)c3ccnn23)c(F)c1 [Compound 185, (5S)-1'-[7-(2-fluoro-4-methoxy-phenyl)-6-methyl-pyrazolo[1,5-a]pyrazin-4-yl]spiro[5,7-dihydrocyclopenta[b]pyridine-6,4'-piperidine]-5-amine] | 0.007
21 | Cc1nc(N2CCC3(CC2)Cc2ncccc2[C@H]3N)c2ccnn2c1-c1cncnc1 [Compound 165, (5S)-1'-(6-methyl-7-pyrimidin-5-yl-pyrazolo[1,5-a]pyrazin-4-yl)spiro[5,7-dihydrocyclopenta[b]pyridine-6,4'-piperidine]-5-amine] | 0.37
22 | Cc1nc(N2CCC3(CC2)Cc2ncccc2[C@H]3N)c2ccnn2c1-c1ccsc1Cl [Compound 54, (5S)-1'-[7-(2-chloro-3-thienyl)-6-methyl-pyrazolo[1,5-a]pyrazin-4-yl]spiro[5,7-dihydrocyclopenta[b]pyridine-6,4'-piperidine]-5-amine] | 0.004
23 | Cc1nc(N2CCC3(CC2)Cc2ncccc2[C@H]3N)c2ccnn2c1-c1cc(C(F)(F)F)nn1C [Compound 163, (5S)-1'-[6-methyl-7-[2-methyl-5-(trifluoromethyl)pyrazol-3-yl]pyrazolo[1,5-a]pyrazin-4-yl]spiro[5,7-dihydrocyclopenta[b]pyridine-6,4'-piperidine]-5-amine] | 0.03
24 | COc1ccc2c(n1)[C@@H](N)C1(CCN(c3nc(C)c(-c4cccc(F)c4F)n4nccc34)CC1)C2 [Compound 213, (7S)-1'-[7-(2,3-difluorophenyl)-6-methyl-pyrazolo[1,5-a]pyrazin-4-yl]-2-methoxy-spiro[5,7-dihydrocyclopenta[b]pyridine-6,4'-piperidine]-7-amine] | 0.022
25 | Cc1nc(N2CCC3(CC2)Cc2ncccc2[C@H]3N)c2ccnn2c1-c1cccc(F)c1C [Compound 197, (5S)-1'-[7-(3-fluoro-2-methyl-phenyl)-6-methyl-pyrazolo[1,5-a]pyrazin-4-yl]spiro[5,7-dihydrocyclopenta[b]pyridine-6,4'-piperidine]-5-amine] | 0.007
26 | Cc1nccc(-c2c(C)nc(N3CCC4(CC3)Cc3cc(F)ccc3[C@H]4N)c3ccnn23)c1Cl [Compound 217, (1S)-1'-[7-(3-Chloro-2-methyl-4-pyridyl)-6-methyl-pyrazolo[1,5-a]pyrazin-4-yl]-5-fluoro-spiro[indane-2,4'-piperidine]-1-amine formate] | 0.008
